The target of one experiment is T1, human GCGR (Homo sapiens, UniProt P47871).
T1 construct: expressed in transfected cells; kept under Blasticidin and Hygromycin selection
Kind of experiment: cAMP activity assay, cells expressing human GCGR. The conditions noted are these: for pEC50: cAMP production, cells expressing human GCGR, assay buffer with or without 20% human serum (not stated which), read-out: GCGR EC50 human; for hGCGR/hGLP1R (hTone): ratio of human GCGR EC50 to human GLP1R EC50. Type of experiment: cell-based. An outline of the steps:
(§1)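 Peptides as 10-point titrations from DMSO tested on cells expressing human GLP1R or GCGR. cAMP measured by luminescent kit after overnight room-temperature incubation in the dark. EC50 from four-parameter logistic fit; native GLP-1 and glucagon as controls.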

The next experiment has as its target T2, human GLP1R (Homo sapiens, UniProt P43220).
T2 construct: expressed in transfected cells; kept under Blasticidin and Hygromycin selection
Briefly: cAMP activity assay, cells expressing human GLP1R. Type of experiment: cell-based. The conditions noted are these: cAMP production, assay buffer with or without 20% human serum (not stated which). In short, it runs like this:
as §1
For orientation: Cyclic AMP is a second messenger, typically raised through Gs and lowered through Gi signalling.

pEC50: −log10 of the molar value. Starred links: 1 amine or outer side, 2 acyl side, 3 side chain; linkers in the order of their positions; H or OH if unused. Non-standard residues stand in square brackets, D forms with d. Residues, ends and D or L forms follow the SMILES beside them. Groups on a side chain read outwards from the residue. *: point of attachment. C18 diacid = O=C(O)CCCCCCCCCCCCCCCCC(=O)*; γGlu = O=C(O)[C@H](CCC(=O)[*:2])N[*:1]; C14 diacid = O=C(O)CCCCCCCCCCCCC(=O)*; Met(O2) = CS(=O)(=O)CC[C@H](N)C(=O)O; AEEA = NCCOCCOCC(=O)O; Aib = CC(C)(N)C(=O)O

T2 sequence (P43220 24-463): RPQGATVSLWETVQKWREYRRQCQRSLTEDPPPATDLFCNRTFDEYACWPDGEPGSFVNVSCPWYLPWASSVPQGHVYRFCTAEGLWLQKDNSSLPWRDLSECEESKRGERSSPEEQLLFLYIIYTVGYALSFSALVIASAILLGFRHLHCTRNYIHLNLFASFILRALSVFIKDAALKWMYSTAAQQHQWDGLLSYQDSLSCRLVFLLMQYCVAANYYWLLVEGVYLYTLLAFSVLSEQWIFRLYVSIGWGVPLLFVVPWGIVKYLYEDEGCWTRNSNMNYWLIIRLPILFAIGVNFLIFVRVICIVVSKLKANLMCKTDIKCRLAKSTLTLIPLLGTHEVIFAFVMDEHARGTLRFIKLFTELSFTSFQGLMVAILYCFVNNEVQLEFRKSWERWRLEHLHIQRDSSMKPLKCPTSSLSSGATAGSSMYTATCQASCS
T1 sequence (P47871 26-477): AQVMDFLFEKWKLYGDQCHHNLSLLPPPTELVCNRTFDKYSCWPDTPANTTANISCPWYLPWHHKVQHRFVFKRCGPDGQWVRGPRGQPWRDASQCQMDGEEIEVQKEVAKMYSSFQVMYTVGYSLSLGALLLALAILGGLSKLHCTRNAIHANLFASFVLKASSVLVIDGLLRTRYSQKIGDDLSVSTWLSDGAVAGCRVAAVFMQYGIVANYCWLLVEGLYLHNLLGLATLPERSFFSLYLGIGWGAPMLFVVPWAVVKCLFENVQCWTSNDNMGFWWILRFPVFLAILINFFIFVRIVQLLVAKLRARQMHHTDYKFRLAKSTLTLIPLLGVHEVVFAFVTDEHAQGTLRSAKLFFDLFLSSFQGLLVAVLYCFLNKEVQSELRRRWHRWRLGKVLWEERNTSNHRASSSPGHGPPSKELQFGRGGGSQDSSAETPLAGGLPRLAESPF

With `CC(C)C[C@H](NC(=O)[C@H](Cc1ccc(O)cc1)NC(=O)[C@H](CCCCN)NC(=O)[C@H](CO)NC(=O)[C@H](Cc1ccc(O)cc1)NC(=O)[C@H](CC(=O)O)NC(=O)[C@H](CO)NC(=O)[C@@H](NC(=O)[C@H](Cc1ccccc1)NC(=O)[C@@H](NC(=O)CNC(=O)[C@H](CCC(N)=O)NC(=O)C(C)(C)NC(=O)[C@@H](N)Cc1c[nH]cn1)[C@@H](C)O)[C@@H](C)O)C(=O)N[C@@H](CC(=O)O)C(=O)N[C@@H](C)C(=O)N[C@@H](CCCNC(=N)N)C(=O)N[C@@H](C)C(=O)N[C@@H](C)C(=O)N[C@@H](CCCCNC(=O)COCCOCCNC(=O)COCCOCCNC(=O)CC[C@H](NC(=O)CCCCCCCCCCCCC(=O)O)C(=O)O)C(=O)N[C@@H](CC(=O)O)C(=O)N[C@@H](Cc1ccccc1)C(=O)N[C@H](C(=O)N[C@@H](CCC(N)=O)C(=O)N[C@@H](Cc1c[nH]c2ccccc12)C(=O)N[C@@H](CC(C)C)C(=O)N[C@@H](CCS(C)(=O)=O)C(=O)N[C@@H](CC(=O)O)C(=O)N[C@H](C(N)=O)[C@@H](C)O)C(C)C` [compound 49] (H-H[Aib]QGTFTSDYSKYLDARAAK([AEEA-AEEA-γGlu-C14 diacid])DFVQWL[Met(O2)]DT-NH2), the negative logarithm of the EC50 (pEC50) at human GCGR was 10.40; at human GLP1R it was 10.70. Besides, the “hGCGR/hGLP1R (hTone)” value on human GCGR stood at 1.91.

Take `CC(C)C[C@H](NC(=O)[C@H](Cc1c[nH]c2ccccc12)NC(=O)[C@H](CCCCNC(=O)COCCOCCNC(=O)COCCOCCNC(=O)CC[C@H](NC(=O)CCCCCCCCCCCCCCCCC(=O)O)C(=O)O)NC(=O)[C@@H](NC(=O)[C@H](Cc1ccccc1)NC(=O)[C@H](CC(=O)O)NC(=O)[C@H](CCC(N)=O)NC(=O)[C@H](C)NC(=O)[C@H](C)NC(=O)[C@H](CCCNC(=N)N)NC(=O)C(C)(C)NC(=O)[C@H](CC(=O)O)NC(=O)[C@H](CC(C)C)NC(=O)[C@H](Cc1ccc(O)cc1)NC(=O)[C@H](CCCCN)NC(=O)[C@H](CO)NC(=O)[C@H](Cc1ccc(O)cc1)NC(=O)[C@H](CC(=O)O)NC(=O)[C@H](CO)NC(=O)[C@@H](NC(=O)[C@H](Cc1ccccc1)NC(=O)[C@@H](NC(=O)CNC(=O)[C@H](CCC(N)=O)NC(=O)C(C)(C)NC(=O)[C@@H](N)Cc1c[nH]cn1)[C@@H](C)O)[C@@H](C)O)C(C)C)C(=O)N[C@@H](CCS(C)(=O)=O)C(=O)N[C@@H](CC(=O)O)C(=O)N[C@H](C(N)=O)[C@@H](C)O` [compound 68] (H-H[Aib]QGTFTSDYSKYLD[Aib]RAAQDFVK([AEEA-AEEA-γGlu-C18 diacid])WL[Met(O2)]DT-NH2): the pEC50 at human GCGR was 9.23; on human GLP1R it was 9.06. Besides, at human GCGR, the “hGCGR/hGLP1R (hTone)” value is 0.7.

Turning to `CC(C)C[C@H](NC(=O)[C@H](Cc1ccc(O)cc1)NC(=O)[C@H](CCCCN)NC(=O)[C@H](CO)NC(=O)[C@H](Cc1ccc(O)cc1)NC(=O)[C@H](CC(=O)O)NC(=O)[C@H](CO)NC(=O)[C@@H](NC(=O)[C@H](Cc1ccccc1)NC(=O)[C@@H](NC(=O)CNC(=O)[C@H](CCC(N)=O)NC(=O)C(C)(C)NC(=O)[C@@H](N)Cc1c[nH]cn1)[C@@H](C)O)[C@@H](C)O)C(=O)N[C@@H](CC(=O)O)C(=O)N[C@@H](C)C(=O)N[C@@H](CCCCN)C(=O)N[C@@H](C)C(=O)N[C@@H](C)C(=O)N[C@@H](CCCCNC(=O)COCCOCCNC(=O)COCCOCCNC(=O)CC[C@H](NC(=O)CCCCCCCCCCCCCCCCC(=O)O)C(=O)O)C(=O)N[C@@H](CC(=O)O)C(=O)N[C@@H](Cc1ccccc1)C(=O)N[C@H](C(=O)N[C@@H](CCC(N)=O)C(=O)N[C@@H](Cc1c[nH]c2ccccc12)C(=O)N[C@@H](CC(C)C)C(=O)N[C@@H](CCS(C)(=O)=O)C(=O)N[C@@H](CC(=O)O)C(=O)N[C@H](C(N)=O)[C@@H](C)O)C(C)C` [compound 70] (H-H[Aib]QGTFTSDYSKYLDAKAAK([AEEA-AEEA-γGlu-C18 diacid])DFVQWL[Met(O2)]DT-NH2; N-terminus assumed), on human GCGR, the pEC50 is 8.96 and the “hGCGR/hGLP1R (hTone)” value came out at 2.3. The same compound gave a pEC50 on human GLP1R of 9.30.

Broadly, the pEC50 is the EC50 on a negative log10 scale, so that one unit is a factor of ten.

Source of the values: patent US11492385B2, “Long-acting co-agonists of the glucagon and GLP-1 receptors” (Merck Sharp & Dohme Corp., priority 2015, dated 2022).
